Experiments:
Experiment in all cases: relative viability (nuclei count vs DMSO), 5 days (fraction); higher = more cells survive
[1] = compound: CCN(CCO)CCCC(C)Nc1ccnc2cc(Cl)ccc12 [Hydroxychloroquine] + O=C(c1cc(Cc2n[nH]c(=O)c3ccccc23)ccc1F)N1CCN(C(=O)C2CC2)CC1 [Olaparib] (partner 8 µM)
Summary of the method: (§1)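 Values are medians from duplicate plates. Each reflects relative viability, defined as the nuclei count of treated wells over that of vehicle wells. Lung cancer cell lines in 1536-well plates were pin-tool dosed one day after seeding with one drug alone or with a fixed anchor-drug dose plus five library-drug doses (not always all listed) in √10 steps, then fixed, stained and imaged at 4× after 5 days.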

[2] = compound: CCN(CCO)CCCC(C)Nc1ccnc2cc(Cl)ccc12 [Hydroxychloroquine] + O=C(CCCCCCC(=O)Nc1ccccc1)NO [Vorinostat] (partner 1 µM)
Summary of the method: as §1

[3] = compound: CCN(CCO)CCCC(C)Nc1ccnc2cc(Cl)ccc12 [Hydroxychloroquine] + C[C@]1(O)C[C@@H](c2nc(-c3ccc4ccc(-c5ccccc5)nc4c3)c3c(N)nccn32)C1 [Linsitinib] (partner 1 µM)
Summary of the method: as §1

[4] = compound: CCN(CCO)CCCC(C)Nc1ccnc2cc(Cl)ccc12 [Hydroxychloroquine] + Nc1nc2[nH]cc(CCc3ccc(C(=O)N[C@@H](CCC(=O)O)C(=O)O)cc3)c2c(=O)[nH]1 [Pemetrexed] (partner 0.2 µM)
Summary of the method: as §1

NCI-H3122 showed a relative viability ([1]; first compound 0.5 µM) of 0.623, a relative viability ([1]; first compound 1.581 µM) of 0.646 and a relative viability ([1]; first compound 5 µM) of 0.676. It also gave a relative viability ([1]; first compound 15.81 µM) of 0.664, a relative viability ([1]; first compound 50 µM) of 0.729 and a relative viability ([2]; first compound 0.5 µM) of 1.04. It also gave a relative viability ([2]; first compound 1.581 µM) of 1.13, a relative viability ([2]; first compound 5 µM) of 1.03 and a relative viability ([2]; first compound 15.81 µM) of 1.06. It also gave a relative viability ([2]; first compound 50 µM) of 1.19, a relative viability ([3]; first compound 0.5 µM) of 1.05 and a relative viability ([3]; first compound 1.581 µM) of 1. The relative viability ([3]; first compound 5 µM) was 0.953, the relative viability ([3]; first compound 15.81 µM) was 1.05 and the relative viability ([3]; first compound 50 µM) was 1.07. It also gave a relative viability ([4]; first compound 0.5 µM) of 0.189, a relative viability ([4]; first compound 1.581 µM) of 0.205 and a relative viability ([4]; first compound 5 µM) of 0.359. It also gave a relative viability ([4]; first compound 15.81 µM) of 0.188 and a relative viability ([4]; first compound 50 µM) of 0.199.
In the case of PC-3 [JPC-3], the relative viability ([1]; first compound 0.5 µM) is reported as 1.23, the relative viability ([1]; first compound 1.581 µM) is reported as 1.14 and the relative viability ([1]; first compound 5 µM) is reported as 1.09. For the same cell line, the relative viability ([1]; first compound 15.81 µM) was 1.2, the relative viability ([1]; first compound 50 µM) was 1.16 and the relative viability ([2]; first compound 0.5 µM) was 0.918. It also gave a relative viability ([2]; first compound 1.581 µM) of 0.847, a relative viability ([2]; first compound 5 µM) of 0.652 and a relative viability ([2]; first compound 15.81 µM) of 0.737. The relative viability ([2]; first compound 50 µM) was 0.782, the relative viability ([3]; first compound 0.5 µM) was 0.983 and the relative viability ([3]; first compound 1.581 µM) was 0.948. It also gave a relative viability ([3]; first compound 5 µM) of 0.923, a relative viability ([3]; first compound 15.81 µM) of 1.01 and a relative viability ([3]; first compound 50 µM) of 0.979. For the same cell line, the relative viability ([4]; first compound 0.5 µM) was 1.09, the relative viability ([4]; first compound 1.581 µM) was 1.2 and the relative viability ([4]; first compound 5 µM) was 1.01. For the same cell line, the relative viability ([4]; first compound 15.81 µM) was 0.323 and the relative viability ([4]; first compound 50 µM) was 0.842.
Work on PC-14 yielded a relative viability ([1]; first compound 0.5 µM) of 0.31, a relative viability ([1]; first compound 1.581 µM) of 0.28 and a relative viability ([1]; first compound 5 µM) of 0.276. The relative viability ([1]; first compound 15.81 µM) was 0.25, the relative viability ([1]; first compound 50 µM) was 0.285 and the relative viability ([2]; first compound 0.5 µM) was 0.672. For the same cell line, the relative viability ([2]; first compound 1.581 µM) was 0.583, the relative viability ([2]; first compound 5 µM) was 0.753 and the relative viability ([2]; first compound 15.81 µM) was 0.687. It also gave a relative viability ([2]; first compound 50 µM) of 0.781, a relative viability ([3]; first compound 0.5 µM) of 0.889 and a relative viability ([3]; first compound 1.581 µM) of 1.07. For the same cell line, the relative viability ([3]; first compound 5 µM) was 0.995, the relative viability ([3]; first compound 15.81 µM) was 1.03 and the relative viability ([3]; first compound 50 µM) was 0.97. The relative viability ([4]; first compound 0.5 µM) was 0.149, the relative viability ([4]; first compound 1.581 µM) was 0.145 and the relative viability ([4]; first compound 5 µM) was 0.118. It also gave a relative viability ([4]; first compound 15.81 µM) of 0.142 and a relative viability ([4]; first compound 50 µM) of 0.129.
With RERF-LC-KJ the relative viability ([1]; first compound 0.5 µM) was 0.917, the relative viability ([1]; first compound 1.581 µM) was 0.948 and the relative viability ([1]; first compound 5 µM) was 0.896. The relative viability ([1]; first compound 15.81 µM) was 0.846, the relative viability ([1]; first compound 50 µM) was 0.933 and the relative viability ([2]; first compound 0.5 µM) was 0.696. The relative viability ([2]; first compound 1.581 µM) was 0.607, the relative viability ([2]; first compound 5 µM) was 0.631 and the relative viability ([2]; first compound 15.81 µM) was 0.692. The relative viability ([2]; first compound 50 µM) was 0.677, the relative viability ([3]; first compound 0.5 µM) was 0.896 and the relative viability ([3]; first compound 1.581 µM) was 0.885. It also gave a relative viability ([3]; first compound 5 µM) of 0.911, a relative viability ([3]; first compound 15.81 µM) of 0.854 and a relative viability ([3]; first compound 50 µM) of 0.822. It also gave a relative viability ([4]; first compound 0.5 µM) of 0.448, a relative viability ([4]; first compound 1.581 µM) of 0.466 and a relative viability ([4]; first compound 5 µM) of 0.457. The relative viability ([4]; first compound 15.81 µM) was 0.489 and the relative viability ([4]; first compound 50 µM) was 0.467.
Cell Line SK-LU-1 has a relative viability ([1]; first compound 0.5 µM) of 0.45, a relative viability ([1]; first compound 1.581 µM) of 0.425 and a relative viability ([1]; first compound 5 µM) of 0.491. It also gave a relative viability ([1]; first compound 15.81 µM) of 0.426, a relative viability ([1]; first compound 50 µM) of 0.445 and a relative viability ([2]; first compound 0.5 µM) of 0.779. The relative viability ([2]; first compound 1.581 µM) was 0.719, the relative viability ([2]; first compound 5 µM) was 0.804 and the relative viability ([2]; first compound 15.81 µM) was 0.799. It also gave a relative viability ([2]; first compound 50 µM) of 0.643, a relative viability ([3]; first compound 0.5 µM) of 1.11 and a relative viability ([3]; first compound 1.581 µM) of 1.09. For the same cell line, the relative viability ([3]; first compound 5 µM) was 1.04, the relative viability ([3]; first compound 15.81 µM) was 1.19 and the relative viability ([3]; first compound 50 µM) was 0.982. For the same cell line, the relative viability ([4]; first compound 0.5 µM) was 1.02, the relative viability ([4]; first compound 1.581 µM) was 0.876 and the relative viability ([4]; first compound 5 µM) was 0.953. For the same cell line, the relative viability ([4]; first compound 15.81 µM) was 1.11 and the relative viability ([4]; first compound 50 µM) was 1.03.
SK-MES-1 showed a relative viability ([1]; first compound 0.5 µM) of 0.812, a relative viability ([1]; first compound 1.581 µM) of 0.683 and a relative viability ([1]; first compound 5 µM) of 0.724. For the same cell line, the relative viability ([1]; first compound 15.81 µM) was 0.738, the relative viability ([1]; first compound 50 µM) was 0.671 and the relative viability ([2]; first compound 0.5 µM) was 1.33. The relative viability ([2]; first compound 1.581 µM) was 0.882, the relative viability ([2]; first compound 5 µM) was 1.2 and the relative viability ([2]; first compound 15.81 µM) was 1.23. For the same cell line, the relative viability ([2]; first compound 50 µM) was 1.27, the relative viability ([3]; first compound 0.5 µM) was 1.1 and the relative viability ([3]; first compound 1.581 µM) was 1.09. The relative viability ([3]; first compound 5 µM) was 1.12, the relative viability ([3]; first compound 15.81 µM) was 1.16 and the relative viability ([3]; first compound 50 µM) was 1.03. For the same cell line, the relative viability ([4]; first compound 0.5 µM) was 1.03, the relative viability ([4]; first compound 1.581 µM) was 0.73 and the relative viability ([4]; first compound 5 µM) was 1.02. The relative viability ([4]; first compound 15.81 µM) was 1.05 and the relative viability ([4]; first compound 50 µM) was 0.945.
Work on SW 1573 yielded a relative viability ([1]; first compound 0.5 µM) of 0.504, a relative viability ([1]; first compound 1.581 µM) of 0.484 and a relative viability ([1]; first compound 5 µM) of 0.432. The relative viability ([1]; first compound 15.81 µM) was 0.472, the relative viability ([1]; first compound 50 µM) was 0.458 and the relative viability ([2]; first compound 0.5 µM) was 0.689. It also gave a relative viability ([2]; first compound 1.581 µM) of 0.627, a relative viability ([2]; first compound 5 µM) of 0.878 and a relative viability ([2]; first compound 15.81 µM) of 0.734. It also gave a relative viability ([2]; first compound 50 µM) of 0.951, a relative viability ([3]; first compound 0.5 µM) of 0.698 and a relative viability ([3]; first compound 1.581 µM) of 0.625. For the same cell line, the relative viability ([3]; first compound 5 µM) was 0.67, the relative viability ([3]; first compound 15.81 µM) was 0.74 and the relative viability ([3]; first compound 50 µM) was 0.674. For the same cell line, the relative viability ([4]; first compound 0.5 µM) was 0.892, the relative viability ([4]; first compound 1.581 µM) was 0.686 and the relative viability ([4]; first compound 5 µM) was 0.794. For the same cell line, the relative viability ([4]; first compound 15.81 µM) was 0.86 and the relative viability ([4]; first compound 50 µM) was 0.758.
Work on UMC-11 yielded a relative viability ([1]; first compound 0.5 µM) of 0.342, a relative viability ([1]; first compound 1.581 µM) of 0.325 and a relative viability ([1]; first compound 5 µM) of 0.365. For the same cell line, the relative viability ([1]; first compound 15.81 µM) was 0.366, the relative viability ([1]; first compound 50 µM) was 0.353 and the relative viability ([2]; first compound 0.5 µM) was 0.4. The relative viability ([2]; first compound 1.581 µM) was 0.314, the relative viability ([2]; first compound 5 µM) was 0.387 and the relative viability ([2]; first compound 15.81 µM) was 0.393. The relative viability ([2]; first compound 50 µM) was 0.457, the relative viability ([3]; first compound 0.5 µM) was 0.928 and the relative viability ([3]; first compound 1.581 µM) was 1.02. It also gave a relative viability ([3]; first compound 5 µM) of 0.986, a relative viability ([3]; first compound 15.81 µM) of 1.1 and a relative viability ([3]; first compound 50 µM) of 1.22. The relative viability ([4]; first compound 0.5 µM) was 0.751, the relative viability ([4]; first compound 1.581 µM) was 0.751 and the relative viability ([4]; first compound 5 µM) was 0.826. For the same cell line, the relative viability ([4]; first compound 15.81 µM) was 0.976 and the relative viability ([4]; first compound 50 µM) was 0.825.

Source: the supplement of paper PMC10307832
